Test results from publication PMC12185579, “Impact of nephrotoxins and oxidants on survival and transport function of hiPSC-derived renal proximal tubular cells” (Archives of Toxicology, 2025).
“And” between values parts separate entries of the source, which are not always exact repeats. Equal entries are not always repeated. Where two headings read alike, the source gives them in different places.

What was measured:
hiPSC [1] = assay: Alamar Blue cell viability, undifferentiated hiPSC; type: cell-based, human; conditions: for IC20 / IC50: Homo sapiens; for IC20: read-out: hiPSC's IC20
Description: (§1) After 24 h of exposure, the viability of the undifferentiated, differentiating, and differentiated cells was examined using the Alamar Blue Assay (O'Brien et al. [2000]), as described previously (Mboni-Johnston et al. [2023]). The relative viability of the cells in the corresponding untreated controls was set to 100%.

[2] = test system: diffD3 (hiPSC differentiating into PTELC); assay: Alamar Blue cell viability, differentiating cells day 3; type: cell-based, human; conditions: for IC50 of diffD3, fold lower than those of hiPSC and diffD9: Alamar Blue, 24 h; for IC50: Homo sapiens, diffD3, 24 h treatment
Description: as §1

[3] = test system: diffD9 (hiPSC differentiated into PTELC); assay: Alamar Blue cell viability, differentiated cells day 9; type: cell-based, human; conditions: diffD9, 24 h treatment; for IC20: read-out: IC20 (inhibitory concentration where 20% of the cells are dead)
Description: as §1

hiPSC [4] = assay: EdU incorporation (proliferation), hiPSC; type: cell-based, human; conditions: 24 h, hiPSC's IC20 and IC50
Description: (§2) To investigate the effect of toxins on the proliferation rate, the incorporation of EdU into S-phase cells was determined using the EdU-Click 488 assay according to the manufacturer’s protocol (Baseclick GmbH, Tutzing, Germany) as reported earlier (Mboni-Johnston et al. [2023]).

diffD3 [5] = assay: EdU incorporation (proliferation), diffD3; type: cell-based, human; conditions: diffD3, 24 h, hiPSC's IC20 and IC50
Description: as §2

diffD9 [6] = assay: EdU incorporation (proliferation), diffD9; type: cell-based, human; conditions: diffD9, 24 h, hiPSC's IC20 and IC50
Description: as §2

diffD3 [7] = assay: TUNEL assay (apoptosis), diffD3; type: cell-based, human; conditions: diffD3, 24 h, IC20 and IC50 of the hiPSC
Description: (§3) To verify whether the substances analyzed induce apoptosis in the cells at different stages of differentiation, the TUNEL (terminal deoxynucleotidyl transferase-mediated dUTP-fluorescein nick-end labeling) assay was performed with cells grown on coverslips using the In-Situ Cell Death Detection Assay Kit (Roche GmbH, Grenzach-Wyhlen, Germany) according to the manufacturer’s instructions. The TUNEL assay visualizes free hydroxyl groups from fragmented DNA produced during apoptosis by labeling them with modified nucleotides through an enzymatic reaction (Gavrieli et al. [1992]). The coverslips were mounted with […]® Antifade Mounting Medium containing DAPI and sealed with nail polish. Fluorescence images were acquired using a fluorescence microscope (Olympus BX43 Upright Microscope, Olympus, Shinjuku, Tokyo, Japan) at 200-fold magnification and analyzed using ImageJ 1.51j8 (Schneider et al. [2012]). TUNEL-positive cells were referenced to the total number of cells and normalized to the untreated control.

[8] = test system: PTEC markers and transporters mRNA in diffD9; assay: RT-PCR marker gene expression in diffD9 treated at diffD9; type: cell-based, human; conditions: diffD9, 24 h; for Aqp-1 mRNA expression: IC20 and IC50, vs untreated diffD9; for Pept-1 mRNA expression: IC50 (tBHQ not statistically significant); for Meg (megalin) mRNA expression: Mena IC20 and IC50, tBHQ IC50 (not statistically significant)
Description: (§4) RNA was isolated using the RNeasy Mini Kit and RNase-free DNase Set (Qiagen, Venlo, The Netherlands) according to the manufacturer’s protocol as reported previously (Mboni-Johnston et al. [2023]). The primer sequences (Table S1, supplement) used for the mRNA expression analyses were designed with the help of NCBI (https://www.ncbi.nlm.nih.gov/nuccore/) and validated for specificity. At the end of the run, data were analyzed using CFX Manager software (v3.1, Bio-Rad Laboratories, Hercules, CA, USA) according to the manufacturer’s instructions. All samples were run with three technical replicates. The Cq values obtained for the genes of interest were first normalized to the mean Cq values obtained for the housekeeping genes ACT-β and RPL-32 and then for the control samples and expressed as a fold of this mean value. Changes in gene expression of ≤ 0.5- and ≥ twofold were considered biologically relevant.

diffD9 [9] = assay: FITC-albumin uptake (flow cytometry) in diffD9 treated at diffD9; type: cell-based, human; conditions: diffD9, 24 h treatment (menadione: IC50)
Description: The effect of toxins on the transport function of hiPSC-derived PTELC was examined by adding fluorescently labeled bovine serum albumin (FITC-BSA) (Sigma-Aldrich, 10 mg/ml) to the culture medium. Cells were incubated with serum-free medium with/without 100 µg/ml FITC-albumin for 2 h at 37 °C, and uptake was stopped with ice-cold PBS. Cells were then harvested from Matrigel-coated wells with trypsin/EDTA, and albumin uptake was analyzed by flow cytometry [Becton Dickinson, Accuri™ C6 plus (Heidelberg, Germany)] as previously reported (Mboni-Johnston et al. [2023]).

[10] = test system: senescence-associated genes (β-GAL, IL-8, p21) in diffD9; assay: RT-PCR senescence-associated genes, diffD9; type: cell-based, human; conditions: diffD9, 48 h after a 24 h treatment
Description: as §4

[11] = test system: stem cell markers, PTEC markers and transporters mRNA in diffD9; assay: RT-PCR marker gene expression at diffD9 after treatment at diffD3; type: cell-based, human; conditions: for expression of megalin and cubilin: treated at diffD3, analyzed at diffD9
Description: as §4

diffD9 [12] = assay: FITC-albumin uptake at diffD9 after treatment at diffD3; type: cell-based, human; conditions: treated 24 h at diffD3 with hiPSC's IC20 and IC50, analyzed at diffD9
Description: Cells were incubated with serum-free medium with/without 100 µg/ml FITC-albumin for 2 h at 37 °C, and uptake was stopped with ice-cold PBS. Cells were then harvested from Matrigel-coated wells with trypsin/EDTA, and albumin uptake was analyzed by flow cytometry [Becton Dickinson, Accuri™ C6 plus (Heidelberg, Germany)] as previously reported (Mboni-Johnston et al. [2023]).

[13] = test system: human liver cell line HepG2; set-up: method as in Chen and Cederbaum [1997]; conditions: HepG2, after 18 h of incubation ref Chen and Cederbaum [1997]; read-out: IC50 (cytotoxicity); cited from earlier work
[14] = test system: senescence-associated genes (β-GAL, IL-8, p21) in diffD3; assay: RT-PCR senescence-associated genes, diffD3; type: cell-based, human; conditions: diffD3, 48 h after a 24 h treatment
Description: as §4

endothelial cells = test system: endothelial cells; set-up: method as in Karimi et al. [2019]; conditions: endothelial cells ref Karimi et al. [2019]; read-out: IC50 (cell viability); cited from earlier work
mammary epithelial cells = test system: mammary epithelial cells; set-up: method as in Jin et al. [2016]; conditions: mammary epithelial cells ref Jin et al. [2016]; read-out: IC50 (cell viability); cited from earlier work
hiPSC [15] = assay: TUNEL assay (apoptosis), hiPSC; type: cell-based, human; conditions: 24 h, IC20 and IC50 of the hiPSC
Description: as §3

diffD9 [16] = assay: TUNEL assay (apoptosis), diffD9; type: cell-based, human; conditions: diffD9, 24 h, IC20 and IC50 of the hiPSC (CisPt: a higher concentration added)
Description: as §3

[17] = test system: senescence-associated genes (β-GAL, IL-8, p21) in hiPSC; assay: RT-PCR senescence-associated genes, hiPSC; type: cell-based, human; conditions: 48 h after a 24 h treatment
Description: as §4

hiPSC, diffD3 and diffD9 [18] = assay: Cell viability of all differentiation stages, with and without pan-caspase inhibitor QVD; type: cell-based, human; conditions: 10 µM QVD
Description: as §1

hiPSC [19] = test system: hiPSC; set-up: method as in Mboni-Johnston et al. [2023]; conditions: as given in Fig. 7 legend, value from former study ref Mboni-Johnston et al. [2023], cited from earlier work
diffD9 [20] = test system: diffD9; set-up: method as in Mboni-Johnston et al. [2023]; conditions: ref Mboni-Johnston et al. [2023]; cited from earlier work
hiPSC, diffD3 and diffD9 [21] = test system: hiPSC, diffD3 and diffD9; set-up: method as in Mboni-Johnston et al. [2023]; conditions: diffD3, differentiated PTELC ref Mboni-Johnston et al. [2023]; cited from earlier work
[22] = as given in Fig. 7 legend, concentration used to treat diffD3 for 24 h
[23] = as given in Fig. 7 legend, concentration used to treat diffD3 for 24 h, read-out: hiPSC's IC50
[24] = hiPSC, 24 h treatment, read-out: IC50 (cell viability, Alamar Blue)

| SMILES | IC20 (hiPSC [1]; [22]) [µM] | IC50 (hiPSC [1]; [23]) [µM] | IC50 (hiPSC [1]; [24]) [µM] | IC50 of diffD3, fold lower than those of hiPSC and diffD9 [2] | IC50 [2] [µM] | IC50 ([3]; Homo sapiens, 24 h) [µM] | IC20 ([3]; Homo sapiens) [µM] | IC50 [3] | EdU incorporation (proliferation) vs untreated control (hiPSC [4]) | EdU incorporation (proliferation) vs untreated control (diffD3 [5]) | EdU incorporation (cells in S-phase) vs untreated control (diffD9 [6]) | frequency of TUNEL-positive cells (diffD3 [7]) | Aqp-1 mRNA expression [8] | Pept-1 mRNA expression [8] | Meg (megalin) mRNA expression [8] | albumin transport (FITC-albumin uptake) (diffD9 [9]) | mRNA expression of senescence-associated genes (β-GAL, IL-8, p21) [10] | expression of megalin and cubilin [11] | albumin uptake (diffD9 [12]) | mRNA expression of senescence-associated genes (β-GAL, IL-8, p21) [14] | further results |
| --- | --- | --- | --- | --- | --- | --- | --- | --- | --- | --- | --- | --- | --- | --- | --- | --- | --- | --- | --- | --- | --- |
| CC1=CC(=O)c2ccccc2C1=O [Mena, menadione] | 3 | 6 | 16.2 | about four | 4.1 | 17.6 | 11 | 17 µM | no significant differences in EdU incorporation | inhibited proliferation | no significant differences in EdU incorporation | significantly increased | significant and dose-dependent decrease | increased significantly | significant and dose-dependent decrease | significant decrease | IL-8 levels significantly increased | low but significant effect | no effect on albumin transport itself |  | IC50 ([3]; listed as Menadione): 18 µM; Nanog mRNA expression ([8]; IC20): significantly increased; CD13 mRNA expression ([8]; IC50): increased significantly; Pept-2 mRNA expression ([8]; IC50): reduced expression; IC50 [13]: 18 to 19 µM |
| CC(C)(C)c1cc(O)ccc1O [tBHQ, tert-butylhydroquinone] | 4 | 8 | 18.5 | 7- to 12 | 2.8 | 34.5 | 15 | 34 µM and 35 µM | no significant differences in EdU incorporation | inhibited proliferation | no significant differences in EdU incorporation | significantly increased | significant dose-dependent decrease | increased above twofold | increased above twofold | increased the transport |  | neither showed a relevant effect |  | IL-8 levels significantly increased | sensitivity of hiPSC compared to diffD9 (hiPSC [1]; Alamar Blue, 24 h): twice as sensitive; Cad-16 mRNA expression ([8]; IC50, statistically significant): increased above twofold; IC50 (endothelial cells): 60 µM; IC50 (mammary epithelial cells): 50 µM |
| N.N.[Cl][Pt][Cl] [CisPt, cisplatin] |  |  |  |  |  |  |  |  | inhibited the likely proliferation-associated EdU incorporation in hiPSC in a dose-dependent manner | not affected | not affected | increased in a dose-dependent manner |  |  |  |  | no extensive expression |  | strong effect | only p21 was significantly higher expressed in diffD3 | frequency of TUNEL-positive cells (hiPSC [15]): increased in a dose-dependent manner; frequency of TUNEL-positive cells (diffD9 [16]): increased in a dose-dependent manner; mRNA expression of senescence-associated genes (β-GAL, IL-8, p21) [17]: no extensive expression; long-term changes in marker transcripts ([11]; treated 24 h at diffD3 with iPSCs' IC20, analyzed at diffD9): all but two transcripts being significantly reduced; cell viability under co-treatment with pan-caspase inhibitor QVD vs mono-treatment (hiPSC, diffD3 and diffD9 [18]): significant restoration of cell viability to almost control level; IC20 (hiPSC [19]; read-out: hiPSC's IC20): 0.3 µM; IC50 (hiPSC [19]; read-out: hiPSC's IC50): 1 µM; albumin uptake capacity of PTELC (diffD9 [20]): reduced the albumin uptake capacity; relative sensitivity of differentiation stages (hiPSC, diffD3 and diffD9 [21]): hiPSC and diffD3 were more sensitive to CisPt than differentiated PTELC |
